{"source": "patent US6461997B1", "about": "“Triazole sulfones having herbicidal activity” (Monsanto Technology LLC, priority 1999, dated 2002)", "key": {"SETFA (giant foxtail)": {"tested_on": "SETFA (giant foxtail)", "experiment": "Pre-emergence herbicidal activity, warm season", "assay_type": "in vivo, Setaria faberi", "conditions": "GR80 = lowest tested rate (300, 100, 30, 10 g/ha) with 80% or greater inhibition; approx. 14 days after treating; 30/21° C.", "procedure,_shortened": "(§1)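 GR80 values derive from percent inhibition relative to untreated plants, read roughly 14 days after sowing and pre-emergence soil-surface treatment (compound in 50:50 acetone/water; rates typically 10, 30, 100, 300 g/ha). Warm-season weeds grew at 30/21° C day/night, cool-season ones at 18/13° C; an asterisk marks activity without reaching 80% at the highest rate.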"}, "PANDI (fall panicum)": {"tested_on": "PANDI (fall panicum)", "experiment": "Pre-emergence herbicidal activity, warm season", "assay_type": "in vivo, Panicum dichotomiflorum", "conditions": "GR80 = lowest tested rate (300, 100, 30, 10 g/ha) with 80% or greater inhibition; approx. 14 days after treating; 30/21° C.", "procedure,_shortened": "as §1"}, "ALOMY (blackgrass)": {"tested_on": "ALOMY (blackgrass)", "experiment": "Pre-emergence herbicidal activity, cool season", "assay_type": "in vivo, Alopecurus myosuroides", "conditions": "GR80 = lowest tested rate (300, 100, 30, 10 g/ha) with 80% or greater inhibition; approx. 14 days after treating; 18/13° C.", "procedure,_shortened": "(§2)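 Seeds sown in sterilised fertilised topsoil received surface-applied compound in 50:50 acetone/water, typically at 300, 100, 30 and 10 g/ha, then greenhouse-grown at 30/21° C (warm-season species) or 18/13° C (cool-season species). Percent inhibition versus untreated plants was scored at about 14 days, giving GR80; an asterisk marks activity short of 80% at the top rate.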"}, "[1]": {"tested_on": "AGSST (creeping bentgrass)", "experiment": "Pre-emergence herbicidal activity, cool season", "assay_type": "in vivo, Agrostis stolonifera", "conditions": "GR80 = lowest tested rate (300, 100, 30, 10 g/ha) with 80% or greater inhibition; approx. 14 days after treating; 18/13° C.", "procedure,_shortened": "as §2"}, "ABUTH (velvetleaf)": {"tested_on": "ABUTH (velvetleaf)", "experiment": "Pre-plant incorporated (PPI) herbicidal activity, warm season", "assay_type": "in vivo, Abutilon theophrasti", "conditions": "for PPI activity (GR80) ABUTH: pre-plant incorporated, GR80 = lowest tested rate with 80% or greater inhibition, approx. 14 days after treating, 30/21° C.", "procedure,_shortened": "(§3)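 Greenhouse PPI test with treated cover soil over seeds; % inhibition vs untreated at about 14 days.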"}, "SORVU (shattercane)": {"tested_on": "SORVU (shattercane)", "experiment": "Pre-plant incorporated (PPI) herbicidal activity, warm season", "assay_type": "in vivo, Sorghum vulgare", "conditions": "for PPI activity GR80, SORVU: pre-plant incorporated, lowest tested rate with 80% or greater inhibition, about 14 days", "procedure,_shortened": "as §3"}, "POLCO (wild buckwheat)": {"tested_on": "POLCO (wild buckwheat)", "experiment": "Pre-plant incorporated (PPI) herbicidal activity, cool season", "assay_type": "in vivo, Polygonum convolvulus", "conditions": "pre-plant incorporated; lowest tested rate with 80% or greater inhibition; about 14 days", "procedure,_shortened": "as §3"}, "STEME (common chickweed)": {"tested_on": "STEME (common chickweed)", "experiment": "Pre-plant incorporated (PPI) herbicidal activity, cool season", "assay_type": "in vivo, Stellaria media", "conditions": "pre-plant incorporated; lowest tested rate with 80% or greater inhibition; about 14 days", "procedure,_shortened": "as §3"}, "rice (ORYSA)": {"tested_on": "rice (ORYSA)", "experiment": "Selectivity test, PPI, warm season crop", "assay_type": "in vivo, Oryza sativa", "conditions": "PPI application", "procedure,_shortened": "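Pre-plant incorporated: compound in organic solvent sprayed onto cover soil, mixed and laid over seeds; untreated soil for controls. Greenhouse after treatment: warm season 30/21° C., cool season 18/13° C. day/night. Percent inhibition versus untreated plants scored about 14 days after planting.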"}}}
{"smiles": "C=CCC(F)(F)S(=O)(=O)c1ncn(C(=O)N(CC)CC)n1", "note": "[Example 17, 1-(N,N-diethylcarbamoyl)-3-[(1,1-difluoro-3-butenyl)sulfonyl]-1,2,4-triazole]", "values": [{"measurement": "Pre-emergence activity (GR80) SETFA", "setting": "SETFA (giant foxtail)", "value": 100, "unit": "g/ha"}, {"measurement": "Pre-emergence activity (GR80) PANDI", "setting": "PANDI (fall panicum)", "value": 100, "unit": "g/ha"}, {"measurement": "Pre-emergence activity (GR80) ALOMY", "setting": "ALOMY (blackgrass)", "value": 100, "unit": "g/ha"}, {"measurement": "Pre-emergence activity (GR80) AGSST", "setting": "[1]", "value": 100, "unit": "g/ha"}, {"measurement": "inhibition at 10 g/ha", "setting": "ABUTH (velvetleaf); Abutilon theophrasti, PPI application, 10 g/ha, read-out: Percent inhibition ABUTH", "value": 0, "unit": "%"}, {"measurement": "inhibition at 30 g/ha", "setting": "ABUTH (velvetleaf); Abutilon theophrasti, PPI application, 30 g/ha, read-out: Percent inhibition ABUTH", "value": 0, "unit": "%"}, {"measurement": "inhibition at 100 g/ha", "setting": "ABUTH (velvetleaf); Abutilon theophrasti, PPI application, 100 g/ha, read-out: Percent inhibition ABUTH", "value": 0, "unit": "%"}, {"measurement": "inhibition at 300 g/ha", "setting": "ABUTH (velvetleaf); Abutilon theophrasti, PPI application, 300 g/ha, read-out: Percent inhibition ABUTH", "value": 40, "unit": "%"}, {"measurement": "inhibition at 900 g/ha", "setting": "ABUTH (velvetleaf); Abutilon theophrasti, PPI application, 900 g/ha, read-out: Percent inhibition ABUTH", "value": 100, "unit": "%"}, {"measurement": "PPI activity (GR80) ABUTH", "setting": "ABUTH (velvetleaf)", "value": 100, "unit": "g/ha"}, {"measurement": "inhibition at 10 g/ha", "setting": "SORVU (shattercane); Sorghum bicolor, PPI application, 10 g/ha, read-out: Percent inhibition SORVU", "value": 20, "unit": "%"}, {"measurement": "inhibition at 30 g/ha", "setting": "SORVU (shattercane); Sorghum bicolor, PPI application, 30 g/ha, read-out: Percent inhibition SORVU", "value": 70, "unit": "%"}, {"measurement": "inhibition at 100 g/ha", "setting": "SORVU (shattercane); Sorghum bicolor, PPI application, 100 g/ha, read-out: Percent inhibition SORVU", "value": 100, "unit": "%"}, {"measurement": "inhibition at 300 g/ha", "setting": "SORVU (shattercane); Sorghum bicolor, PPI application, 300 g/ha, read-out: Percent inhibition SORVU", "value": 100, "unit": "%"}, {"measurement": "inhibition at 900 g/ha", "setting": "SORVU (shattercane); Sorghum bicolor, PPI application, 900 g/ha, read-out: Percent inhibition SORVU", "value": 100, "unit": "%"}, {"measurement": "PPI activity GR80, SORVU", "setting": "SORVU (shattercane)", "value": "* (activity observed, at least at highest rate, but <80% inhibition)"}, {"measurement": "PPI activity GR80, POLCO", "setting": "POLCO (wild buckwheat)", "value": 100, "unit": "g/ha"}, {"measurement": "PPI activity GR80, STEME", "setting": "STEME (common chickweed)", "value": 10, "unit": "g/ha"}, {"measurement": "inhibition at 10 g/ha", "setting": "rice (ORYSA); Oryza sativa, 10 g/ha, read-out: Percent inhibition ORYSA", "value": 0, "unit": "%"}, {"measurement": "inhibition at 30 g/ha", "setting": "rice (ORYSA); Oryza sativa, 30 g/ha, read-out: Percent inhibition ORYSA", "value": 0, "unit": "%"}, {"measurement": "inhibition at 100 g/ha", "setting": "rice (ORYSA); Oryza sativa, 100 g/ha, read-out: Percent inhibition ORYSA", "value": 0, "unit": "%"}, {"measurement": "inhibition at 300 g/ha", "setting": "rice (ORYSA); Oryza sativa, 300 g/ha, read-out: Percent inhibition ORYSA", "value": 30, "unit": "%"}, {"measurement": "inhibition at 900 g/ha", "setting": "rice (ORYSA); Oryza sativa, 900 g/ha, read-out: Percent inhibition ORYSA", "value": 60, "unit": "%"}]}
{"smiles": "C=C(CC(F)(F)S(=O)(=O)c1ncn(C(=O)N(CC)CC)n1)C[Si](C)(C)C", "note": "[Example 20]", "values": [{"measurement": "Pre-emergence activity (GR80) SETFA", "setting": "SETFA (giant foxtail)", "value": 100, "unit": "g/ha"}, {"measurement": "Pre-emergence activity (GR80) PANDI", "setting": "PANDI (fall panicum)", "value": 300, "unit": "g/ha"}, {"measurement": "Pre-emergence activity (GR80) ALOMY", "setting": "ALOMY (blackgrass)", "value": 100, "unit": "g/ha"}, {"measurement": "Pre-emergence activity (GR80) AGSST", "setting": "[1]", "value": 300, "unit": "g/ha"}, {"measurement": "Percent inhibition ABUTH", "setting": "ABUTH (velvetleaf); PPI application, 10 g/ha", "value": 0, "unit": "%"}, {"measurement": "Percent inhibition ABUTH", "setting": "ABUTH (velvetleaf); PPI application, 30 g/ha", "value": 0, "unit": "%"}, {"measurement": "Percent inhibition ABUTH", "setting": "ABUTH (velvetleaf); PPI application, 100 g/ha", "value": 0, "unit": "%"}, {"measurement": "Percent inhibition ABUTH", "setting": "ABUTH (velvetleaf); PPI application, 300 g/ha", "value": 30, "unit": "%"}, {"measurement": "Percent inhibition ABUTH", "setting": "ABUTH (velvetleaf); PPI application, 900 g/ha", "value": 80, "unit": "%"}, {"measurement": "PPI activity (GR80) ABUTH", "setting": "ABUTH (velvetleaf)", "value": 300, "unit": "g/ha"}, {"measurement": "Percent inhibition SORVU", "setting": "SORVU (shattercane); PPI application, 10 g/ha", "value": 0, "unit": "%"}, {"measurement": "Percent inhibition SORVU", "setting": "SORVU (shattercane); PPI application, 30 g/ha", "value": 0, "unit": "%"}, {"measurement": "Percent inhibition SORVU", "setting": "SORVU (shattercane); PPI application, 100 g/ha", "value": 30, "unit": "%"}, {"measurement": "Percent inhibition SORVU", "setting": "SORVU (shattercane); PPI application, 300 g/ha", "value": 40, "unit": "%"}, {"measurement": "Percent inhibition SORVU", "setting": "SORVU (shattercane); PPI application, 900 g/ha", "value": 100, "unit": "%"}, {"measurement": "PPI activity GR80, SORVU", "setting": "SORVU (shattercane)", "value": "* (activity observed, at least at highest rate, but <80% inhibition)"}, {"measurement": "PPI activity GR80, POLCO", "setting": "POLCO (wild buckwheat)", "value": "* (activity observed, at least at highest rate, but <80% inhibition)"}, {"measurement": "PPI activity GR80, STEME", "setting": "STEME (common chickweed)", "value": "* (activity observed, at least at highest rate, but <80% inhibition)"}, {"measurement": "Percent inhibition ORYSA", "setting": "rice (ORYSA); 10 g/ha", "value": 0, "unit": "%"}, {"measurement": "Percent inhibition ORYSA", "setting": "rice (ORYSA); 30 g/ha", "value": 0, "unit": "%"}, {"measurement": "Percent inhibition ORYSA", "setting": "rice (ORYSA); 100 g/ha", "value": 0, "unit": "%"}, {"measurement": "Percent inhibition ORYSA", "setting": "rice (ORYSA); 300 g/ha", "value": 10, "unit": "%"}, {"measurement": "Percent inhibition ORYSA", "setting": "rice (ORYSA); 900 g/ha", "value": 40, "unit": "%"}]}
